Target: T1, Cannabinoid-1 receptor (CB1R) (Rattus norvegicus, UniProt P20272)
T1 construct: The tissue obtained from the brain of SD rats was homogenized; from tissue; host or cells: brain of SD rats (membrane pellet of the homogenate)
Assay: Cannabinoid-1 receptor (CB1R) binding affinity assay ([3H]CP-55940, rat CB-1 receptor binding protocol)
Conditions: brain tissue of SD rats, [3H]CP-55940, 30° C. 60 min; read-out: IC50

T1 sequence (P20272 whole entry): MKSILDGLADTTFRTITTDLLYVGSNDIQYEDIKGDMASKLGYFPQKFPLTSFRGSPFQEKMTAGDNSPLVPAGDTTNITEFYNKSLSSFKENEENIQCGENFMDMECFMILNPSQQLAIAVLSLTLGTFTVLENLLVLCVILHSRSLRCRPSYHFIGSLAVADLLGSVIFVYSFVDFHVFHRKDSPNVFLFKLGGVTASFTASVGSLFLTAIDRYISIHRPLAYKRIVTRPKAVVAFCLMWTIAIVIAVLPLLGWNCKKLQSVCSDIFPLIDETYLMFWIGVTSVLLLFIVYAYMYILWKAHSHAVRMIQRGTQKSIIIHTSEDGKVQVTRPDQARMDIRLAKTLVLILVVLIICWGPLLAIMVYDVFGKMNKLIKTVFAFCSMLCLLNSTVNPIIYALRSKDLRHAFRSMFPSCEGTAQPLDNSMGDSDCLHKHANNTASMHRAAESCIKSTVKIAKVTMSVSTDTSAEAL

| Structure (SMILES) | IC50 |
| --- | --- |
| CCCn1nnc(-c2nn(-c3ccc(Cl)cc3Cl)c(-c3ccc(Cl)cc3)c2C)n1 [Example 566, 5-(5-(4-Chlorophenyl)-1-(2,4-dichlorophenyl)-4-methyl-1H-pyrazol-3-yl)-2-propyl-2H-tetrazole] | 62.1 nM |
| CCn1nnnc1-c1nn(-c2ccc(Cl)cc2Cl)c(-c2ccc(Cl)cc2)c1C [Example 569, 5-(5-(4-Chlorophenyl)-1-(2,4-dichlorophenyl)-4-methyl-1H-pyrazol-3-yl)-1-ethyl-1H-tetrazole] | 202 nM |
| CCCCCn1nnnc1-c1nn(-c2ccc(Cl)cc2Cl)c(-c2ccc(Cl)cc2)c1C [Example 573, 5-(5-(4-Chlorophenyl)-1-(2,4-dichlorophenyl)-4-methyl-1H-pyrazol-3-yl)-1-pentyl-1H-tetrazole] | 184 nM |
| CCCCCn1nnc(-c2nn(-c3ccc(Cl)cc3Cl)c(-c3ccc(Cl)cc3)c2C)n1 [Example 574, 5-(5-(4-Chlorophenyl)-1-(2,4-dichlorophenyl)-4-methyl-1H-pyrazol-3-yl)-2-pentyl-2H-tetrazole] | 122 nM |
| Cc1c(-c2nnnn2C(C)C)nn(-c2ccc(Cl)cc2Cl)c1-c1ccc(Cl)cc1 [Example 575, 5-(5-(4-Chlorophenyl)-1-(2,4-dichlorophenyl)-4-methyl-1H-pyrazol-3-yl)-1-isopropyl-1H-tetrazole] | 166 nM |
| Cc1c(-c2nnn(C(C)C)n2)nn(-c2ccc(Cl)cc2Cl)c1-c1ccc(Cl)cc1 [Example 576, 5-(5-(4-Chlorophenyl)-1-(2,4-dichlorophenyl)-4-methyl-1H-pyrazol-3-yl)-2-isopropyl-2H-tetrazole] | 101 nM |
| Cc1c(-c2nnnn2C2CCCC2)nn(-c2ccc(Cl)cc2Cl)c1-c1ccc(Cl)cc1 [Example 577, 5-(5-(4-Chlorophenyl)-1-(2,4-dichlorophenyl)-4-methyl-1H-pyrazol-3-yl)-1-cyclopentyl-1H-tetrazole] | 26.5 nM |
| Cc1c(-c2nnn(C3CCCC3)n2)nn(-c2ccc(Cl)cc2Cl)c1-c1ccc(Cl)cc1 [Example 578, 5-(5-(4-Chlorophenyl)-1-(2,4-dichlorophenyl)-4-methyl-1H-pyrazol-3-yl)-2-cyclopentyl-2H-tetrazole] | 67.9 nM |
| Cc1c(-c2nnn(C3CCCCC3)n2)nn(-c2ccc(Cl)cc2Cl)c1-c1ccc(Cl)cc1 [Example 580, 5-(5-(4-Chlorophenyl)-1-(2,4-dichlorophenyl)-4-methyl-1H-pyrazol-3-yl)-2-cyclohexyl-2H-tetrazole] | 75.8 nM |
| Cc1c(-c2nnn(Cc3ccccc3)n2)nn(-c2ccc(Cl)cc2Cl)c1-c1ccc(Cl)cc1 [Example 582, 2-Benzyl-5-(5-(4-chlorophenyl)-1-(2,4-dichlorophenyl)-4-methyl-1H-pyrazol-3-yl)-2H-tetrazole] | 105 nM |
| Cc1c(-c2nnnn2Cc2ccccn2)nn(-c2ccc(Cl)cc2Cl)c1-c1ccc(Cl)cc1 [Example 583, 2-((5-(5-(4-Chlorophenyl)-1-(2,4-dichlorophenyl)-4-methyl-1H-pyrazol-3-yl)-1H-tetrazol-1-yl)methyl)pyridine] | 105 nM |
| Cc1c(-c2nnn(Cc3ccccn3)n2)nn(-c2ccc(Cl)cc2Cl)c1-c1ccc(Cl)cc1 [Example 584, 2-((5-(5-(4-Chlorophenyl)-1-(2,4-dichlorophenyl)-4-methyl-1H-pyrazol-3-yl)-2H-tetrazol-2-yl)methyl)pyridine] | 93 nM |
| Cc1c(-c2nnnn2Cc2cccnc2)nn(-c2ccc(Cl)cc2Cl)c1-c1ccc(Cl)cc1 [Example 585, 3-((5-(5-(4-Chlorophenyl)-1-(2,4-dichlorophenyl)-4-methyl-1H-pyrazol-3-yl)-1H-tetrazol-1-yl)methyl)pyridine] | 103 nM |
| Cc1c(-c2nnn(Cc3cccnc3)n2)nn(-c2ccc(Cl)cc2Cl)c1-c1ccc(Cl)cc1 [Example 586, 3-((5-(5-(4-Chlorophenyl)-1-(2,4-dichlorophenyl)-4-methyl-1H-pyrazol-3-yl)-2H-tetrazol-2-yl)methyl)pyridine] | 100 nM |
| Cc1c(-c2nnnn2Cc2ccncc2)nn(-c2ccc(Cl)cc2Cl)c1-c1ccc(Cl)cc1 [Example 587, 4-((5-(5-(4-Chlorophenyl)-1-(2,4-dichlorophenyl)-4-methyl-1H-pyrazol-3-yl)-1H-tetrazol-1-yl)methyl)pyridine] | 88.2 nM |
| Cc1c(-c2nnn(Cc3ccncc3)n2)nn(-c2ccc(Cl)cc2Cl)c1-c1ccc(Cl)cc1 [Example 588, 4-((5-(5-(4-Chlorophenyl)-1-(2,4-dichlorophenyl)-4-methyl-1H-pyrazol-3-yl)-2H-tetrazol-2-yl)methyl)pyridine] | 135 nM |
| Cc1c(-c2nnn(CC3CCCCC3)n2)nn(-c2ccc(Cl)cc2Cl)c1-c1ccc(Cl)cc1 [Example 590, 5-(5-(4-Chlorophenyl)-1-(2,4-dichlorophenyl)-4-methyl-1H-pyrazol-3-yl)-2-(cyclohexylmethyl)-2H-tetrazole] | 85.3 nM |
| Cc1c(-c2nnnn2CCc2ccccc2)nn(-c2ccc(Cl)cc2Cl)c1-c1ccc(Cl)cc1 [Example 591, 5-(5-(4-Chlorophenyl)-1-(2,4-dichlorophenyl)-4-methyl-1H-pyrazol-3-yl)-1-phenethyl-1H-tetrazole] | 135 nM |

| Structure (SMILES) | IC50 |
| --- | --- |
| Cc1c(-c2nnn(CCc3ccccc3)n2)nn(-c2ccc(Cl)cc2Cl)c1-c1ccc(Cl)cc1 [Example 592, 5-(5-(4-Chlorophenyl)-1-(2,4-dichlorophenyl)-4-methyl-1H-pyrazol-3-yl)-2-phenethyl-2H-tetrazole] | 122 nM |
| Cc1c(-c2nnnn2Cc2ccco2)nn(-c2ccc(Cl)cc2Cl)c1-c1ccc(Cl)cc1 [Example 593, 5-(5-(4-Chlorophenyl)-1-(2,4-dichlorophenyl)-4-methyl-1H-pyrazol-3-yl)-1-(furan-2-ylmethyl)-1H-tetrazole] | 53.8 nM |
| Cc1c(-c2nnn(Cc3ccco3)n2)nn(-c2ccc(Cl)cc2Cl)c1-c1ccc(Cl)cc1 [Example 594, 5-(5-(4-Chlorophenyl)-1-(2,4-dichlorophenyl)-4-methyl-1H-pyrazol-3-yl)-2-(furan-2-ylmethyl)-2H-tetrazole] | 93.8 nM |
| Cc1c(-c2nnnn2Cc2ccoc2)nn(-c2ccc(Cl)cc2Cl)c1-c1ccc(Cl)cc1 [Example 595, 5-(5-(4-Chlorophenyl)-1-(2,4-dichlorophenyl)-4-methyl-1H-pyrazol-3-yl)-1-(furan-3-ylmethyl)-1H-tetrazole] | 105 nM |
| Cc1c(-c2nnn(Cc3ccoc3)n2)nn(-c2ccc(Cl)cc2Cl)c1-c1ccc(Cl)cc1 [Example 596, 5-(5-(4-Chlorophenyl)-1-(2,4-dichlorophenyl)-4-methyl-1H-pyrazol-3-yl)-2-(furan-3-ylmethyl)-2H-tetrazole] | 195 nM |
| Cc1c(-c2nnnn2Cc2ccsc2)nn(-c2ccc(Cl)cc2Cl)c1-c1ccc(Cl)cc1 [Example 597, 5-(5-(4-Chlorophenyl)-1-(2,4-dichlorophenyl)-4-methyl-1H-pyrazol-3-yl)-1-(thiophen-3-ylmethyl)-1H-tetrazole] | 39.8 nM |
| Cc1c(-c2nnn(Cc3ccsc3)n2)nn(-c2ccc(Cl)cc2Cl)c1-c1ccc(Cl)cc1 [Example 598, 5-(5-(4-Chlorophenyl)-1-(2,4-dichlorophenyl)-4-methyl-1H-pyrazol-3-yl)-2-(thiophen-3-ylmethyl)-2H-tetrazole] | 77.6 nM |
| Cc1c(-c2nnnn2C2CC2)nn(-c2ccc(Cl)cc2Cl)c1-c1ccc(Cl)cc1 [Example 599, 5-(5-(4-Chlorophenyl)-1-(2,4-dichlorophenyl)-4-methyl-1H-pyrazol-3-yl)-1-cyclopropyl-1H-tetrazole] | 181 nM |
| Cc1c(-c2nnnn2C2CCC2)nn(-c2ccc(Cl)cc2Cl)c1-c1ccc(Cl)cc1 [Example 600, 5-(5-(4-Chlorophenyl)-1-(2,4-dichlorophenyl)-4-methyl-1H-pyrazol-3-yl)-1-cyclobutyl-1H-tetrazole] | 42.3 nM |
| CCCCCCn1nnnc1-c1nn(-c2ccc(Cl)cc2Cl)c(-c2ccc(Cl)cc2)c1C [Example 603, 5-(5-(4-Chlorophenyl)-1-(2,4-dichlorophenyl)-4-methyl-1H-pyrazol-3-yl)-1-hexyl-1H-tetrazole] | 50.6 nM |
| Cc1c(-c2nnnn2C23CC4CC(CC(C4)C2)C3)nn(-c2ccc(Cl)cc2Cl)c1-c1ccc(Cl)cc1 [Example 605, 1-Adamantyl-5-(5-(4-chlorophenyl)-1-(2,4-dichlorophenyl)-4-methyl-1H-pyrazol-3-yl)-1H-tetrazole] | 128 nM |
| Cc1c(-c2nnnn2C2CCCC2)nn(-c2ccc(Cl)cc2Cl)c1-c1ccc(Br)cc1 [Example 606, 5-(5-(4-bromophenyl)-1-(2,4-dichlorophenyl)-4-methyl-1H-pyrazol-3-yl)-1-cyclopentyl-1H-tetrazole] | 11.6 nM |
| Cc1c(-c2nnnn2C2CCCCCC2)nn(-c2ccc(Cl)cc2Cl)c1-c1ccc(Br)cc1 [Example 608, 5-(5-(4-bromophenyl)-1-(2,4-dichlorophenyl)-4-methyl-1H-pyrazol-3-yl)-1-cycloheptyl-1H-tetrazole] | 16.5 nM |
| CCc1c(-c2nnnn2C2CCCC2)nn(-c2ccc(Cl)cc2Cl)c1-c1ccc(Br)cc1 [Example 609, 5-(5-(4-bromophenyl)-1-(2,4-dichlorophenyl)-4-ethyl-1H-pyrazol-3-yl)-1-cyclopentyl-1H-tetrazole] | 14.2 nM |
| CCc1c(-c2nnnn2C2CCCC2)nn(-c2ccc(Cl)cc2Cl)c1-c1ccc(Cl)cc1 [Example 610, 5-(5-(4-chlorophenyl)-1-(2,4-dichlorophenyl)-4-ethyl-1H-pyrazol-3-yl)-1-cyclopentyl-1H-tetrazole] | 22.6 nM |
| Cc1c(-c2n[nH]c(C3CCCC3)n2)nn(-c2ccc(Cl)cc2Cl)c1-c1ccc(Cl)cc1 [Example 611, 3-(5-(4-Chlorophenyl)-1-(2,4-dichlorophenyl)-4-methyl-1H-pyrazol-3-yl)-5-cyclopentyl-1H-1,2,4-triazole] | 699 nM |
| Cc1c(-c2n[nH]c(C3CCCCC3)n2)nn(-c2ccc(Cl)cc2Cl)c1-c1ccc(Cl)cc1 [Example 612, 3-(5-(4-Chlorophenyl)-1-(2,4-dichlorophenyl)-4-methyl-1H-pyrazol-3-yl)-5-cyclohexyl-1H-1,2,4-triazole] | 227 nM |

Source: patent publication US7875647B2, “Heteroaryl-pyrazole derivatives as cannabinoid CB1 receptor antagonists” (Green Cross Corporation, priority 2006, dated 2011)
